Assay results from US20080113900A1, “Pharmaceutical compositions and therapeutic applications for the use of a synthetic vitamin B12 derivative, glutathionylcobalamin” (priority 2006, published 2008).
Several values for one entry are separate records, joined by “and”; a condition that tells them apart may be missing. Equal entries are not always repeated. Structures can show the parent of a compound that is named as a salt.

What was measured:
SK-HEP-1 cells [1] = experiment: Effect of homocysteine and H2O2 on endothelial cell viability (MTS assay); conditions: for Normalized Data Log 2, Mean / Normalized Data Log 10, Mean: Hcy alone, n = 6; for Cell viability (MTS assay): SK-HEP-1, 2 hours, n = 6 replicates
SK-HEP-1 cells [2] = experiment: NACCbl protection from homocysteine with inhibition of Hsp32/Hsp70 by Sn(IX) protoporphyrin, quercitin or siRNA (MTS assay); conditions: listed as Hcy
in vitro = conditions: human, SK-HEP-1 cells
Hsp32 = Hsp32 gene expression (RT-PCR, densitometry); assay type: cell-based, human
Method: (§1) Cells were plated into 6-, 12-, or 24-well cell culture clusters, at 2×10^3, 2×10^5, or 1×10^5 cells per well and incubated until 90% confluent. Treatments were applied as above.
(§2) Following incubation, cells were subjected to mRNA extraction followed by cDNA synthesis for each sample under test. Polymerase chain reaction cDNA templates were prepared for simplex PCR protocol. PCR products were then visualized using a UV Transilluminator and images captured using a Kodak ID gel imaging system. Densitometry and statistical analysis was then performed on each gene expression band image using PSP® v 10.0 running under Windows XP®.
(§3) mRNA extraction was performed using the Quickprep micro mRNA Purification Kit. Following incubation of cells post-treatment, the media was removed from the cells, adherent cells were re-suspended in 0.4 ml extraction buffer and 0.8 ml elution buffer at 65° C. was added.
A reaction mixture was prepared in individual microcentrifuge tubes containing 2 cDNA synthesis beads, 32 μl of the mRNA solution and 1 μl of pd(N)6. This mixture was incubated at 37° C. in a water bath for 60 minutes. After incubation, 27 μl of RNase-free DEPC treated water was added to each tube to make a total volume 60 μl. cDNA samples were prepared in duplicate. Sample 1 was used immediately in RT-PCR protocol. Sample 2 was prepared for qPCR protocol by the addition of 150 μl of 95% ice-cold ethanol and stored at −20° C.
Microcentrifuge tubes from puReTaq™Ready-To-Go™ PCR Beads containing one PCR bead were labeled for each sample required. Added to the PCR bead were 17 μl of RNase-free DEPC treated water, 1 μl sense primer, 1 μl anti-sense primer and 5 μl of the cDNA solution. RT-PCR conditions were as follows: Hsp70 and β-actin, pre-treatment step, 94° C. for 1 minute, followed by denaturing at 92° C. for 1 minute, annealing at 60° C. for 1 minute and extension at 72° C. for 1 minute. Total cycles, 30, post-treatment was then carried out at 72° C. for 10 minutes. For Hsp32, pre-treatment step, 95° C. for 2 minutes, followed by denaturing at 94° C. for 30 seconds, annealing at 58° C. for 1 minute and extension at 72° C. for 1 minute. Total cycles 45, post treatment was then carried out at 72° C. for 10 minutes. Following RT-PCR, samples were stored at −20° C.
Gels were visualised on a UV Transilluminator. Photographs were stored using a Kodak Digital camera system fitted with a UV filter set connected to a PC. Images were then transferred to the Kodak ID gel imaging system. Densitometry was performed on each gene expression band using PSP™ v10 running under Windows XP®.
Experiments were conducted using Hsp32 and Hsp 70 gene expression as the basis for study. […] The densitometric data are presented as means ±SEM of n=3 separate experiments. *p<0.05 or **p<0.01, treatment vs. control.

Hsp70 = Hsp70 gene expression (RT-PCR, densitometry); conditions: SK-HEP-1, 30 μM, 2 hr
Method: as §1, §2, §3
A reaction mixture was prepared in individual microcentrifuge tubes containing 2 cDNA synthesis beads, 32 μl of the mRNA solution and 1 μl of pd(N)6. This mixture was incubated at 37° C. in a water bath for 60 minutes. After incubation, 27 μl of RNase-free DEPC treated water was added to each tube to make a total volume 60 μl. cDNA samples were prepared in duplicate. Sample 1 was used immediately in RT-PCR protocol.
Microcentrifuge tubes from puReTaq™Ready-To-Go™ PCR Beads containing one PCR bead were labeled for each sample required. Added to the PCR bead were 17 μl of RNase-free DEPC treated water, 1 μl sense primer, 1 μl anti-sense primer and 5 μl of the cDNA solution. RT-PCR conditions were as follows: Hsp70 and β-actin, pre-treatment step, 94° C. for 1 minute, followed by denaturing at 92° C. for 1 minute, annealing at 60° C. for 1 minute and extension at 72° C. for 1 minute. Total cycles, 30, post-treatment was then carried out at 72° C. for 10 minutes. For Hsp32, pre-treatment step, 95° C. for 2 minutes, followed by denaturing at 94° C. for 30 seconds, annealing at 58° C. for 1 minute and extension at 72° C. for 1 minute. […]

SK-HEP-1 cells [3] = experiment: Protection of endothelial cells from homocysteine-induced cell death (MTS assay); assay type: cell-based, human
Method: The effect of a constant concentration of NACCbl and GSCbl to protect cells against variable concentrations of homocysteine was assessed. […] Cell viability was determined by MTS® assay. Data shown in FIG. 4 are representative of means ±SE of 6 independent samples. FIG. 4 illustrates that NACCbl (▪) and GSCbl (▴) protect endothelial cells from the effect of homocysteine. […] Cell viability was determined by MTS® assay. […] There was a decrease in protection as homocysteine concentration increased, but there was still ˜60% survival at 50 μM homocysteine.
The data was normalized (log 2 and log 10) as shown in FIGS. 16 and 17 and Tables 16 and 17, respectively, below.

SK-HEP-1 cells [4] = experiment: Protection from homocysteine-induced apoptosis, Caspase-3 activity (apoptosis assay); assay type: cell-based, human; conditions: 30 μM two hours, then 30 μM homocysteine two hours
Method: Caspase 3 is activated when cells undergo apoptosis. Caspase-3 assay is a standard for apoptosis assay. Homocysteine is a known inducer of apoptosis. Cells were cultured in 96-well plates for 24 hours and then treated with reagents under test conditions. Cytotoxic agents, H2O2 and etoposide were added to negative control wells. The assay was performed according to the manufacturer's protocol, as follows: Cells were re-suspended in 100 μl of clear media and 50 μl of Caspase-3 substrate solution was immediately added to each test well. […] Cell viability was determined by MTS® assay. […] Cell viability was determined by MTS® assay.

NC(CCS)C(=O)O (racemic) [Homocysteine, DL-Homocysteine]
Normalized Data Log 2, Mean (SK-HEP-1 cells [1]; conc. 1.780): 59.351 | Normalized Data Log 10, Mean (SK-HEP-1 cells [1]; conc. 1.780): 89.537 | Normalized Data Log 2, Mean (SK-HEP-1 cells [1]; conc. 3.125): 48.077 | Normalized Data Log 10, Mean (SK-HEP-1 cells [1]; conc. 3.125): 73.700 | Normalized Data Log 2, Mean (SK-HEP-1 cells [1]; conc. 6.250): 34.347 | Normalized Data Log 10, Mean (SK-HEP-1 cells [1]; conc. 6.250): 54.413 | Normalized Data Log 2, Mean (SK-HEP-1 cells [1]; conc. 12.500): 32.253 | Normalized Data Log 10, Mean (SK-HEP-1 cells [1]; conc. 12.500): 51.471 | Normalized Data Log 2, Mean (SK-HEP-1 cells [1]; conc. 25.000): 19.208 | Normalized Data Log 10, Mean (SK-HEP-1 cells [1]; conc. 25.000): 33.145 | Normalized Data Log 2, Mean (SK-HEP-1 cells [1]; conc. 50.000): 14.935 | Normalized Data Log 10, Mean (SK-HEP-1 cells [1]; conc. 50.000): 27.142 | Normalized Data Log 2, Mean (SK-HEP-1 cells [1]; conc. 100.000): 6.164 | Normalized Data Log 10, Mean (SK-HEP-1 cells [1]; conc. 100.000): 14.820 | Normalized Data Log 2, Mean (SK-HEP-1 cells [1]; conc. 200.000): −0.033 | Normalized Data Log 10, Mean (SK-HEP-1 cells [1]; conc. 200.000): 6.115 | Concentration achieving greater than 90% death (<10% survival) (SK-HEP-1 cells [1]; SK-HEP-1, 2 hours): 25 µM | Concentration that killed cells (SK-HEP-1 cells [1]; SK-HEP-1, 2 hours, p<0.001): ≥ 5 µM | Cell viability (MTS assay) (SK-HEP-1 cells [1]; 0.781 μM): 98.11 and 102.5676 and 102.4576 and 98.72 and 98.39 | Cell viability (MTS assay) (SK-HEP-1 cells [1]; 1.562 μM): 100.5319 and 102.4026 and 85.18 and 81.33 and 81.6 and 98.83 | Cell viability (MTS assay) (SK-HEP-1 cells [1]; 3.125 μM): 91.62 and 82.82 and 78.3 and 80.94 and 91.78 | Cell viability (MTS assay) (SK-HEP-1 cells [1]; 6.25 μM): 62.02 and 28.4 and 38.2485 and 48.6474 and 67.63 and 55.0298 | Cell viability (MTS assay) (SK-HEP-1 cells [1]; 25 μM): 1.495 and 0.5044 and 0.1192 | Cell viability (MTS assay) (SK-HEP-1 cells [1]; 50 μM): 0.2843 (2×) and 0.9445 and 1.44 and 3.255 | Cell viability by MTS assay (FIG. 11), replicates 1-6 (SK-HEP-1 cells [2]; SK-HEP-1, NACCbl 30 μM two hours with or without Sn(IX)PP/quercetin, then Hcy conc. 200 two hours, label Hcy = Hcy alone): 0.33 and 0.312 and 0.39 and 0.302 and 0.421 and 0.406 | Cell viability by MTS assay (FIG. 11), replicates 1-6 (SK-HEP-1 cells [2]; as E45, Hcy conc. 1.78): 1.746 and 1.932 and 1.95 and 1.83 and 1.837 and 1.884 | Cell viability by MTS assay (FIG. 11), replicates 1-6 (SK-HEP-1 cells [2]; as E45, Hcy conc. 3.125): 1.543 and 1.487 and 1.656 and 1.63 and 1.593 and 1.558 | Cell viability by MTS assay (FIG. 11), replicates 1-6 (SK-HEP-1 cells [2]; as E45, Hcy conc. 6.25): 1.304 and 1.406 and 1.227 and 1.176 and 1.15 and 1.119 | Cell viability by MTS assay (FIG. 11), replicates 1-6 (SK-HEP-1 cells [2]; as E45, Hcy conc. 12.5): 1.104 and 1.001 and 1.042 and 1.114 and 1.324 and 1.479 | Cell viability by MTS assay (FIG. 11), replicates 1-6 (SK-HEP-1 cells [2]; as E45, Hcy conc. 25): 0.692 and 0.956 and 0.876 and 0.882 and 0.937 and 0.74 | Cell viability by MTS assay (FIG. 11), replicates 1-6 (SK-HEP-1 cells [2]; as E45, Hcy conc. 50): 0.678 and 0.881 and 0.602 and 0.77 and 0.724 and 0.779 | Cell viability by MTS assay (FIG. 11), replicates 1-6 (SK-HEP-1 cells [2]; as E45, Hcy conc. 100): 0.654 and 0.449 and 0.466 and 0.501 and 0.522 and 0.51 | viability at 2 h, 0.781 µM (in vitro): 99.8% | viability at 2 h, 3.125 µM (in vitro): 96% | Hsp32 gene expression (Hsp32; SK-HEP-1, 30 μM, 2 hr): increase in expression | Hsp32 gene expression (Hsp32; SK-HEP-1, Sn (IX) protoporphyrin 25 μM, Quercitin 15 μM): induced | Hsp70 gene expression (Hsp70): increase in expression | Absorbance at 490 nm, Mean (SK-HEP-1 cells [3]; SK-HEP-1, NACCbl 30 μM, NAC 75 μM, Hcy conc. 200.000, n = 6, label Hcy = Hcy alone): 0.360 | Mean (FIG. 14, protection of SK-HEP-1 cells from Hcy) (SK-HEP-1 cells [3]; [Hcy] 30 μM, [NAC] = 45 μM, [NACCbl] = 12.5 μM, [Folate] = 25 μM where named in the label, label Hcy/HCy = Hcy alone): 0.616 | Absorbance at 490 nm, Mean (SK-HEP-1 cells [3]; as E80, Hcy conc. 1.780): 1.863 | Absorbance at 490 nm, Mean (SK-HEP-1 cells [3]; as E80, Hcy conc. 3.125): 1.578 | Absorbance at 490 nm, Mean (SK-HEP-1 cells [3]; as E80, Hcy conc. 6.250): 1.230 | Absorbance at 490 nm, Mean (SK-HEP-1 cells [3]; as E80, Hcy conc. 12.500): 1.177 | Absorbance at 490 nm, Mean (SK-HEP-1 cells [3]; as E80, Hcy conc. 25.000): 0.847 | Absorbance at 490 nm, Mean (SK-HEP-1 cells [3]; as E80, Hcy conc. 50.000): 0.739 | Absorbance at 490 nm, Mean (SK-HEP-1 cells [3]; as E80, Hcy conc. 100.000): 0.517

CN1c2c(nc(N)[nH]c2=O)NC[C@@H]1CNc1ccc(C(=O)N[C@@H](CCC(=O)O)C(=O)O)cc1 [folate, 5-Methyltetrahydrofolic acid disodium salt]
Hsp32 gene expression (Hsp32; SK-HEP-1, 30 μM, 2 hr): increase in expression | Hsp70 gene expression (Hsp70): increase in expression | Protection against apoptosis induced by homocysteine (SK-HEP-1 cells [4]): partial protection
